Test results from patent US9359298B2, “Cajanine structure analogous compound, preparation method and use” (INSTITUTE OF MEDICINAL BIOTECHNOLOGY, CHINESE ACADEMY OF …, priority 2011, dated 2016).
Values after ≈ are worked out from the molar mass of the structure shown. Like-named read-outs stand apart in the source and are kept apart here.

Assays:
Assay type in all cases: cell-based
[1] = tested on: PC12 cells; assay: Neuroprotective activity assay, serum-deprived injury to PC12 cells (MTT); details: for viability at 10 µM: Rattus norvegicus, PC-12, 48 h, 10 μM test compound, 48 h, Control 100.0 ± 9.2, Model 69.3 ± 4.1, read-out: serum-deprived (surviving PC12 cells, MTT 570 nm)
In short: (§1)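 PC12 cells on poly-lysine plated 24 h, then injured 48 h by serum-free DMEM or 4 μM rotenone with 10 μM test compound present during injury. Viability read by MTT (4 h), absorbance 570 nm.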

[2] = tested on: HIV-1 III B virus; assay: Anti-HIV activity assay (P24 antigen in MT-4 cells); details: Human immunodeficiency virus 1, MT4, 96 h, MT-4 cells, HIV-1 III B 100TCID50, 96 h, P24 antigen; read-out: HIV IC50
[3] = tested on: PC12 cells; assay: Neuroprotective activity assay, rotenone injury to PC12 cells (MTT); details: for viability at 10 µM: Rattus norvegicus, PC-12, 48 h, 10 μM test compound, 4 μM rotenone, 48 h, Control 100.0 ± 8.9, Model 73.2 ± 7.8, read-out: rotenone (surviving PC12 cells, MTT 570 nm)
In short: as §1

[4] = tested on: HCV; assay: Anti-hepatitis C virus (HCV) activity assay (HCV RNA in Huh7.5 cells); details: Hepatitis C virus, Huh7.5, 72 h, Huh7.5 cells, 72 h, HCV RNA by RT-PCR, Reed-Muench; read-out: HCV EC50
Method: Inoculate Huh7.5 cells into 96-well plates to a density of 3×10^4 cells/cm^2, culture for 24h, infect the cells with 45 IU/cell HCV supernatant, meanwhile, add drug solutions or solvent control for treatment.

[5] = tested on: Coxsackie virus B6; assay: Coxsackie virus activity assay (CPE in Vero cells); details: Vero
[6] = tested on: Influenza A virus (hanfang359/95); assay: Determination of anti-influenza virus activity (CPE in MDCK cells); details: for IC50: Influenza A virus, MDCK, 36 h
[7] = read-out: COX-B6 IC50, Vero cells, about 100TCID50, CPE, Reed-Muench

Molecule `COc1ccnc(/C=C/c2cc(O)c(CC=C(C)C)c(OC)c2)c1` [Compound 10z, 2-isopentenyl-3-methoxy-5-[(E)-2-(4-methoxypyrid-2-yl)ethenyl]phenol] has a viability at 10 µM [1] of 84.6 ± 3.9%, an IC50 [2] of 2.83 µg/mL (≈ 8.7 µM) and a viability at 10 µM [3] of 87 ± 5.1%. It also gave an EC50 [4] of 1.19 µg/mL (≈ 3.66 µM), an IC50 [5, 7] of 0.84 µg/mL (≈ 2.58 µM) and an IC50 [6] of 0.32 µg/mL (≈ 0.983 µM). For the same molecule, the “anti-influenza virus activities compared with the lead compound cajanine” value ([6]; statement in words) was “significantly stronger than the lead compound cajanine”.
In the case of `COC(=O)c1c(O)c(CC=C(C)C)c(OC)c(Cl)c1/C=C/c1ccccc1` [Compound 12, methyl 2-hydroxy-3-isopentenyl-4-methoxy-5-chloro-6-[(E)-styryl]benzoate], the viability at 10 µM [1] is reported as 60.2 ± 5.1%, the IC50 [2] is reported as 8.17 µg/mL (≈ 21.1 µM) and the viability at 10 µM [3] is reported as 74.5 ± 3.2%. The EC50 [4] was 6.87 µg/mL (≈ 17.8 µM), the IC50 [5, 7] was greater than 6.17 µg/mL and the IC50 [6] was 6.17 µg/mL (≈ 15.9 µM).
`COC(=O)c1c(/C=C/c2ccccc2)cc(OC)c(CC=C(C)C)c1OC` [Compound 14, methyl 2,4-dimethoxy-3-isopentenyl-6-[(E)-styryl]benzoate] showed a viability at 10 µM [1] of 69.7 ± 5.6%, an IC50 [2] of 1.32 µg/mL (≈ 3.6 µM) and a viability at 10 µM [3] of 73.7 ± 8.5%. For the same molecule, the EC50 [4] was 1.77 µg/mL (≈ 4.83 µM), the IC50 [5, 7] was 1.6 µg/mL (≈ 4.37 µM) and the IC50 [6] was greater than 2.06 µg/mL.
Work on `COc1cc(/C=C/c2ccccc2)c(C(=O)O)c(OC)c1CC=C(C)C` [Compound 15, 2-methoxy-3-isopentenyl-4-methoxy-6-[(E)-styryl]benzoic acid] yielded a viability at 10 µM [1] of 74.1 ± 2.5%, an IC50 [2] of 1.43 µg/mL (≈ 4.06 µM) and a viability at 10 µM [3] of 83.1 ± 5.7%. For the same molecule, the EC50 [4] was 0.83 µg/mL (≈ 2.36 µM), the IC50 [5, 7] was greater than 2.06 µg/mL and the IC50 [6] was greater than 0.23 µg/mL.
`COC(=O)c1c(O)cc(OC)c(CC=C(C)C)c1/C=C/c1ccccc1` [Compound 18, methyl 2-hydroxy-4-methoxy-5-isopentenyl-6-[(E)-styryl]benzoate] gave a viability at 10 µM [1] of 77.8 ± 6.3%, an IC50 [2] of 0.34 µg/mL (≈ 0.965 µM) and a viability at 10 µM [3] of 74.9 ± 2.9%. For the same molecule, the EC50 [4] was 8.51 µg/mL (≈ 24.1 µM), the IC50 [5, 7] was greater than 6.17 µg/mL and the IC50 [6] was greater than 18.5 µg/mL.
Work on `COc1cc(/C=C/Cc2ccccc2)cc(OC)c1` [Compound 21a, 1,3-dimethoxy-5-[(E)-3-phenylpropen-1-yl]benzene] yielded a viability at 10 µM [1] of 81.2 ± 2.4%, an IC50 [2] of 1.1 µg/mL (≈ 4.33 µM) and a viability at 10 µM [3] of 80.5 ± 2.3%. For the same molecule, the EC50 [4] was 2.83 µg/mL (≈ 11.1 µM), the IC50 [5, 7] was 4.23 µg/mL (≈ 16.6 µM) and the IC50 [6] was 1.32 µg/mL (≈ 5.19 µM).
`Oc1cc(O)cc(/C=C/Cc2ccccc2)c1` [Compound 21b, 1,3-dihydroxy-5-[(E)-3-phenylpropen-1-yl]benzene] was tested, and the viability at 10 µM [1] was 74.6 ± 3.5%, the IC50 [2] was 0.88 µg/mL (≈ 3.89 µM) and the viability at 10 µM [3] was 78.9 ± 6.8%. It also gave an EC50 [4] of 1.47 µg/mL (≈ 6.5 µM), an IC50 [5, 7] of 3.26 µg/mL (≈ 14.4 µM) and an IC50 [6] of 2.54 µg/mL (≈ 11.2 µM).
`COc1cc(/C=C/c2ccc(OC)c(O)c2)cc(OC)c1` [Compound 21d, 1,3-dimethoxy-5-[(E)-3-hydroxy-4-methoxy-styryl]benzene] was tested, and the viability at 10 µM [1] was 88.7 ± 6.3%, the “protective effect on serum-deprived injury to PC12 cells” value ([1]; statement in words) was “the strongest activities” and the IC50 [2] was 0.63 µg/mL (≈ 2.2 µM). The viability at 10 µM [3] was 89.8 ± 2.8%, the “protective effect on rotenone injury to PC12 cells” value ([3]; statement in words) was “the strongest activities” and the EC50 [4] was 3.37 µg/mL (≈ 11.8 µM). It also gave an IC50 ([5]; read-out: COX-B6 IC50) of 7.98 µg/mL (≈ 27.9 µM) and an IC50 [6] of 5.42 µg/mL (≈ 18.9 µM).
In the case of `Oc1cc(O)cc(/C=C/c2ccc(O)c(O)c2)c1` [Compound 21e, 1,3-dihydroxy-5-[(E)-3,4-dihydroxystyryl]benzene], the viability at 10 µM [1] is reported as 85.6 ± 4.2%, the IC50 [2] is reported as 6.33 µg/mL (≈ 25.9 µM) and the viability at 10 µM [3] is reported as 87.4 ± 2.5%. The EC50 [4] was 2.06 µg/mL (≈ 8.43 µM), the IC50 [5, 7] was 4.86 µg/mL (≈ 19.9 µM) and the IC50 [6] was 2.38 µg/mL (≈ 9.74 µM).
`COc1cc(/C=C(\C)c2cc(O)cc(O)c2)cc(OC)c1` [Compound 21g, 1,3-dimethoxy-5-[(E)-2-(3,5-dihydroxyphenyl)propen-1-yl]benzene] gave a viability at 10 µM [1] of 80.2 ± 1.5%, an IC50 [2] of 1.27 µg/mL (≈ 4.44 µM) and a viability at 10 µM [3] of 82.3 ± 3.1%. It also gave an EC50 [4] of 0.9 µg/mL (≈ 3.14 µM), an IC50 [5, 7] of 6.84 µg/mL (≈ 23.9 µM) and an IC50 [6] of 4.25 µg/mL (≈ 14.8 µM).
With `C/C(=C\c1cc(O)cc(O)c1)c1cc(O)cc(O)c1` [Compound 21h, 1,3-dihydroxy-5-[(E)-2-(3,5-dihydroxyphenyl)propen-1-yl]benzene] the viability at 10 µM [1] was 74.8 ± 2.6%, the IC50 [2] was 5.28 µg/mL (≈ 20.4 µM) and the viability at 10 µM [3] was 71.2 ± 3.8%. For the same molecule, the EC50 [4] was 4.46 µg/mL (≈ 17.3 µM), the IC50 [5, 7] was 6.98 µg/mL (≈ 27 µM) and the IC50 [6] was 5.84 µg/mL (≈ 22.6 µM).
